Measured values published in patent publication US20090264298A1, “Methods for enriching subpopulations” (AMBERGEN, Inc., priority 2007, published 2009).

What was measured:
[1] = molecular target: T1, MDM2 (Homo sapiens, UniProt Q00987); experiment: p53-MDM interaction assay, complexes pre-formed before contact photo-transfer; assay type: binding; settings: complex formed in solution, captured on beads, contact photo-transferred
T1 construct: polyhistidine (C); made in house; host or cells: rabbit reticulocyte lysate, cell-free (MDM2)
Experimental: All steps were performed at +4° C. or on an ice water bath and all reagents and samples were also kept under these conditions during the procedure. […] To facilitate addition of small bead volumes to the samples, the beads were initially prepared to a 10% (v/v) bead suspension with 5 mM DTT in PBS. The samples, now 80 μL each, were then mixed with 10 μL of the 10% (v/v) bead suspension corresponding to addition of 1 μL packed bead volume. After capture on the NeutrAvidin beads for 1 hr, beads were washed by mixing 3× briefly (briefly=5 sec vortex mix) in 400 bead volumes per wash of PBS pH 7.5 and 5 mM DTT. The washing procedure was performed in batch mode using 0.45 micron pore size, PVDF membrane, micro-centrifuge Filtration Devices to facilitate manipulation of the small volumes of affinity matrix (˜100 micron beads) and exchange the buffers (Ultrafree-MC Durapore Micro-centrifuge Filtration Devices, 400 μL capacity; Millipore, Billerica, Mass.). Prior to contact photo-transfer of the captured and isolated proteins, the washed pellet of 1 μL of NeutrAvidin agarose beads was suspended in a final volume of 50 μL of 50% glycerol and 5 mM DTT in PBS thereby resulting in a 2% (v/v) bead suspension.

[2] = molecular target: T2, PKCα (Homo sapiens, UniProt P17252); experiment: PMA mediated PKCα sub-cellular translocation, measured by kinase activity after photocleavable antibody isolation; assay type: cell-based; settings: cultured HeLa cells, 200 nM PMA for 5 min, detergent fractionated; based on kinase activity of isolated PKCα; n=4
T2 construct: isolate and photo-release endogenous PKCa from the undiluted detergent fractionated HeLa cell extracts; endogenous in cells; host or cells: HeLa (ATCC)
Experimental: FIG. 20. Phorbol ester (PMA) mediated protein kinase Cα (PKCα) sub-cellular translocation as measured by functional activity following isolation with photocleavable antibodies. Cultured HeLa cells were stimulated with 200 nM PMA for 5 min and detergent fractionated into the cytosol and membrane compartments prior to isolation and purification with the photocleavable antibodies.
Cultured HeLa cells (ATCC; Manassas, Va.) were stimulated for 5 min with 200 nM Phorbol-12-Myristate-13-Acetate (PMA; EMD Biosciences, Inc., San Diego, Calif.) and subsequently detergent fractionated into sub-cellular compartments according to reported procedures [Ramsby et al. (1994) Electrophoresis 15, 265-277; Ramsby & Makowski. (1999) Methods Mol Biol 112, 53-66; Chiang et al. (2000) J Biochem Biophys Methods 46, 53-68]. PMA is a potent activator of PKCα and is well known to cause translocation of the kinase from the cytosolic to the membrane sub-cellular compartments [Ross & Joyner. (1997) Endothelium 5, 321-332; Bazan & Rapoport. (1996) JPharmacol Toxicol Methods 36, 87-95; Yazlovitskaya & Melnykovych. (1995) Cancer Lett 88, 179-183]. […]

T1 sequence (Q00987 whole entry): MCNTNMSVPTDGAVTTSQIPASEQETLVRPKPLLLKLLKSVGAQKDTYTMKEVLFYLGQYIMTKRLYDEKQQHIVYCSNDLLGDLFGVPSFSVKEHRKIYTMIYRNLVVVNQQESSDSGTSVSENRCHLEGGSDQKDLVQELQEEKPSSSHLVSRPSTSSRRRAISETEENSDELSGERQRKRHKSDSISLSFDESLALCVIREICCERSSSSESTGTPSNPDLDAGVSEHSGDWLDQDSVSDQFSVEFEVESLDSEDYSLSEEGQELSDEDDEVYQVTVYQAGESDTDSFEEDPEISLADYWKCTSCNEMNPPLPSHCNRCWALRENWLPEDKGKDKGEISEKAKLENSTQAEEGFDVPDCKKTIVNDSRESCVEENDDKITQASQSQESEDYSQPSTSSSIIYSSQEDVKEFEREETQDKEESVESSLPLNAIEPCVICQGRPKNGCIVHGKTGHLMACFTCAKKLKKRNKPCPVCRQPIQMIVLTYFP

Row | Compound | binding of cell-free expressed BODIPY-FL p53 probe to MDM bait [1] | PKCα distribution, cytosol [2] [%] | PKCα distribution, membrane [2] [%]
1 | p53 probe: cell-free expressed p53 labeled only with BODIPY-FL using BODIPY-FL-tRNA COMPLETE | selective binding | – | –
2 | CCCCCCCCCCCCCC(=O)O[C@@H]1[C@@H](C)[C@@]2(O)[C@@H](C=C(CO)C[C@]3(O)C(=O)C(C)=C[C@@H]23)[C@@H]2C(C)(C)[C@]12OC(C)=O [PMA, Phorbol-12-Myristate-13-Acetate] | – | 16±4 | 84±3
